Test results taken from US11000033B2, “Ketone or oxime compound, and herbicide” (NISSAN CHEMICAL CORPORATION, priority 2014, dated 2021).

Tests used:
Type in all cases: in vivo
[1] = test system: Setaria viridis; assay: Test Example 5: herbicidal effect by foliage application, plastic box (symbol G); conditions: 320 g/ha, 3 weeks after application
Outline: (§1)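 Leaf-applied emulsion, water-diluted to a preset herbicide dose, on two-week-old seedlings raised in a 25° C. to 30° C. greenhouse; injury rated at 3 weeks using earlier criteria.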

[2] = test system: Amaranthus retroflexus; assay: Test Example 4: herbicidal effect by soil treatment (symbol N); conditions: application herbicide amount 320 g/ha
Outline: (§2)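 Seeds were sown in sterilized diluvial soil, covered with about 1.5 cm of soil, and the soil surface was sprayed with a water-diluted emulsion of the compound at a predetermined rate. Plants grew in a greenhouse at 25° C. to 30° C.; effects were scored visually 3 weeks after application.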

[3] = test system: beet; assay: Test Example 5: effect on crop by foliage application, plastic box (symbol f); conditions: 320 g/ha, 3 weeks after application
Outline: (§3)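 Crop seed is sown alongside grass and broadleaf weed species in spots in sterilized diluvial soil, then covered to a depth of about 1.5 cm. Plants grow in a greenhouse kept at 25° C. to 30° C.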

[4] = test system: Cyperus difformis; assay: Test Example 3: herbicidal effect by foliage application, Wagner pot (symbol E); conditions: application herbicide amount 320 g/ha
Outline: (§4)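 Alluvial soil was flooded to a depth of 0.1–0.5 cm, seeded with the weeds and rice, and kept in a greenhouse at 25–30 °C. After 14 days of growth, the foliage received a small-sprayer application of emulsion diluted to the intended rate; injury was rated at 3 weeks.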

[5] = test system: Echinochloa crus-galli var. crus-galli; assay: Test Example 3: herbicidal effect by foliage application, Wagner pot (symbol H); conditions: application herbicide amount 320 g/ha
Outline: as §4

[6] = test system: Stellaria media; assay: Test Example 5: herbicidal effect by foliage application, plastic box (symbol P); conditions: 320 g/ha, 3 weeks after application
Outline: as §1

[7] = test system: Apera spica-venti; assay: Test Example 5: herbicidal effect by foliage application, plastic box (symbol L); conditions: 320 g/ha, 3 weeks after application
Outline: as §1

[8] = test system: rice plant; assay: Test Example 5: effect on crop by foliage application, plastic box (symbol b); conditions: 320 g/ha, 3 weeks after application
Outline: as §3

[9] = test system: Echinochloa crus-galli var. crus-galli; assay: Test Example 4: herbicidal effect by soil treatment (symbol H); conditions: application herbicide amount 320 g/ha
Outline: as §2

[10] = test system: Echinochloa oryzacola Vasing.; assay: Test Example 2: herbicidal activity, application during weed generation in submerged conditions (symbol A); conditions: Table 23; application herbicide amount 320 g/ha; grade 0-5 by criteria of Test Example 1
Outline: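 Weeds emerging under flooded conditions were treated with compound formulated as an emulsion and diluted with water to the intended herbicide amount, poured onto the surface of 4 cm standing water. Seeds had been co-sown in alluvial soil; plants grew at 25° C. to 30° C. and were assessed after 3 weeks.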

[11] = test system: soybean; assay: Test Example 5: effect on crop by foliage application, plastic box (symbol d); conditions: 320 g/ha, 3 weeks after application
Outline: as §3

[12] = test system: Apera spica-venti; assay: Test Example 4: herbicidal effect by soil treatment (symbol L); conditions: application herbicide amount 320 g/ha
Outline: as §2

[13] = test system: Echinochloa oryzacola Vasing.; assay: Test Example 1: herbicidal activity, application before weed generation in submerged conditions (symbol A); conditions: application herbicide amount 320 g/ha
Outline: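 Greenhouse growth at 25–30 °C lasted 3 weeks after treatment, when each weed was graded 0–5 by herbicidal ratio. Treatment was a diluted emulsion applied to the water surface of 4 cm-submerged alluvial soil on the sowing day.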

CON=C(C)CC1CC(OC(=O)C(C)Oc2ccccc2)=C(c2c(C)cc(C)cc2C)C1=O (stereo not drawn) [1-060]
G: Setaria viridis, herbicidal effect grade [1]: 5 (Herbicidal ratio of 90% or more (almost completely withered)) | N (Amaranthus retroflexus) herbicidal effect grade [2]: 5 (Herbicidal ratio of 90% or more (almost completely withered)) | f: beet, effect on crop grade [3]: 0 (Herbicidal ratio of 5% or lower (almost no effect)) | herbicidal effect on E, grade 0-5 [4]: 5 (Herbicidal ratio of 90% or more (almost completely withered)) | herbicidal effect on H (Echinochloa crus-galli var. crus-galli), grade 0-5 [5]: 5 (Herbicidal ratio of 90% or more (almost completely withered)) | P: Stellaria media, herbicidal effect grade [6]: 3 (Herbicidal ratio of 40% or higher and lower than 70%) | L: Apera spica-venti, herbicidal effect grade [7]: 5 (Herbicidal ratio of 90% or more (almost completely withered)) | b: directly sowed rice plant, effect on crop grade [8]: 5 (Herbicidal ratio of 90% or more (almost completely withered)) | H (Echinochloa crus-galli var. crus-galli) herbicidal effect grade [9]: 5 (Herbicidal ratio of 90% or more (almost completely withered)) | Herbicidal effect grade, A: Echinochloa oryzacola Vasing. [10]: 5 (Herbicidal ratio of 90% or more (almost completely withered)) | d: soybean, effect on crop grade [11]: 4 (Herbicidal ratio of 70% or higher and lower than 90%) | L (Apera spica-venti) herbicidal effect grade [12]: 5 (Herbicidal ratio of 90% or more (almost completely withered)) | Herbicidal effect grade, A: Echinochloa oryzacola Vasing. [13]: 5 (Herbicidal ratio of 90% or more (almost completely withered))

CSCCON=C(C)CC1CC(O)=C(c2c(C)cc(C)cc2C)C1=O (stereo not drawn) [1-029]
G: Setaria viridis, herbicidal effect grade [1]: 5 (Herbicidal ratio of 90% or more (almost completely withered)) | N (Amaranthus retroflexus) herbicidal effect grade [2]: 0 (Herbicidal ratio of 5% or lower (almost no effect)) | f: beet, effect on crop grade [3]: 0 (Herbicidal ratio of 5% or lower (almost no effect)) | herbicidal effect on E, grade 0-5 [4]: 4 (Herbicidal ratio of 70% or higher and lower than 90%) | herbicidal effect on H (Echinochloa crus-galli var. crus-galli), grade 0-5 [5]: 5 (Herbicidal ratio of 90% or more (almost completely withered)) | P: Stellaria media, herbicidal effect grade [6]: 3 (Herbicidal ratio of 40% or higher and lower than 70%) | L: Apera spica-venti, herbicidal effect grade [7]: 5 (Herbicidal ratio of 90% or more (almost completely withered)) | b: directly sowed rice plant, effect on crop grade [8]: 5 (Herbicidal ratio of 90% or more (almost completely withered)) | H (Echinochloa crus-galli var. crus-galli) herbicidal effect grade [9]: 5 (Herbicidal ratio of 90% or more (almost completely withered)) | Herbicidal effect grade, A: Echinochloa oryzacola Vasing. [10]: 4 (Herbicidal ratio of 70% or higher and lower than 90%) | d: soybean, effect on crop grade [11]: 1 (Herbicidal ratio of 5% or higher and lower than 20%) | L (Apera spica-venti) herbicidal effect grade [12]: 5 (Herbicidal ratio of 90% or more (almost completely withered)) | Herbicidal effect grade, A: Echinochloa oryzacola Vasing. [13]: 4 (Herbicidal ratio of 70% or higher and lower than 90%)

CON=C(CC1CC1)CC1CC(O)=C(c2c(C)cc(C)cc2C)C1=O (stereo not drawn) [1-070]
G: Setaria viridis, herbicidal effect grade [1]: 5 (Herbicidal ratio of 90% or more (almost completely withered)) | N (Amaranthus retroflexus) herbicidal effect grade [2]: 0 (Herbicidal ratio of 5% or lower (almost no effect)) | f: beet, effect on crop grade [3]: 0 (Herbicidal ratio of 5% or lower (almost no effect)) | herbicidal effect on E, grade 0-5 [4]: 4 (Herbicidal ratio of 70% or higher and lower than 90%) | herbicidal effect on H (Echinochloa crus-galli var. crus-galli), grade 0-5 [5]: 5 (Herbicidal ratio of 90% or more (almost completely withered)) | P: Stellaria media, herbicidal effect grade [6]: 0 (Herbicidal ratio of 5% or lower (almost no effect)) | L: Apera spica-venti, herbicidal effect grade [7]: 4 (Herbicidal ratio of 70% or higher and lower than 90%) | b: directly sowed rice plant, effect on crop grade [8]: 5 (Herbicidal ratio of 90% or more (almost completely withered)) | H (Echinochloa crus-galli var. crus-galli) herbicidal effect grade [9]: 4 (Herbicidal ratio of 70% or higher and lower than 90%) | Herbicidal effect grade, A: Echinochloa oryzacola Vasing. [10]: 4 (Herbicidal ratio of 70% or higher and lower than 90%) | d: soybean, effect on crop grade [11]: 0 (Herbicidal ratio of 5% or lower (almost no effect)) | L (Apera spica-venti) herbicidal effect grade [12]: 5 (Herbicidal ratio of 90% or more (almost completely withered)) | Herbicidal effect grade, A: Echinochloa oryzacola Vasing. [13]: 4 (Herbicidal ratio of 70% or higher and lower than 90%)

CC(CC1CC(O)=C(c2c(C)cc(C)cc2C)C1=O)=NOc1ccccc1 (stereo not drawn) [1-057]
G: Setaria viridis, herbicidal effect grade [1]: 3 (Herbicidal ratio of 40% or higher and lower than 70%) | N (Amaranthus retroflexus) herbicidal effect grade [2]: 1 (Herbicidal ratio of 5% or higher and lower than 20%) | f: beet, effect on crop grade [3]: 1 (Herbicidal ratio of 5% or higher and lower than 20%) | herbicidal effect on E, grade 0-5 [4]: 3 (Herbicidal ratio of 40% or higher and lower than 70%) | herbicidal effect on H (Echinochloa crus-galli var. crus-galli), grade 0-5 [5]: 4 (Herbicidal ratio of 70% or higher and lower than 90%) | P: Stellaria media, herbicidal effect grade [6]: 0 (Herbicidal ratio of 5% or lower (almost no effect)) | L: Apera spica-venti, herbicidal effect grade [7]: 1 (Herbicidal ratio of 5% or higher and lower than 20%) | b: directly sowed rice plant, effect on crop grade [8]: 3 (Herbicidal ratio of 40% or higher and lower than 70%) | H (Echinochloa crus-galli var. crus-galli) herbicidal effect grade [9]: 4 (Herbicidal ratio of 70% or higher and lower than 90%) | Herbicidal effect grade, A: Echinochloa oryzacola Vasing. [10]: 2 (Herbicidal ratio of 20% or higher and lower than 40%) | d: soybean, effect on crop grade [11]: 3 (Herbicidal ratio of 40% or higher and lower than 70%) | L (Apera spica-venti) herbicidal effect grade [12]: 4 (Herbicidal ratio of 70% or higher and lower than 90%) | Herbicidal effect grade, A: Echinochloa oryzacola Vasing. [13]: 5 (Herbicidal ratio of 90% or more (almost completely withered))

CC(CC1CC(O)=C(c2c(C)cc(C)cc2C)C1=O)=NOC(C)C (stereo not drawn) [1-052]
G: Setaria viridis, herbicidal effect grade [1]: 5 (Herbicidal ratio of 90% or more (almost completely withered)) | N (Amaranthus retroflexus) herbicidal effect grade [2]: 3 (Herbicidal ratio of 40% or higher and lower than 70%) | f: beet, effect on crop grade [3]: 0 (Herbicidal ratio of 5% or lower (almost no effect)) | herbicidal effect on E, grade 0-5 [4]: 5 (Herbicidal ratio of 90% or more (almost completely withered)) | herbicidal effect on H (Echinochloa crus-galli var. crus-galli), grade 0-5 [5]: 5 (Herbicidal ratio of 90% or more (almost completely withered)) | P: Stellaria media, herbicidal effect grade [6]: 0 (Herbicidal ratio of 5% or lower (almost no effect)) | L: Apera spica-venti, herbicidal effect grade [7]: 5 (Herbicidal ratio of 90% or more (almost completely withered)) | b: directly sowed rice plant, effect on crop grade [8]: 5 (Herbicidal ratio of 90% or more (almost completely withered)) | H (Echinochloa crus-galli var. crus-galli) herbicidal effect grade [9]: 5 (Herbicidal ratio of 90% or more (almost completely withered)) | Herbicidal effect grade, A: Echinochloa oryzacola Vasing. [10]: 5 (Herbicidal ratio of 90% or more (almost completely withered)) | d: soybean, effect on crop grade [11]: 4 (Herbicidal ratio of 70% or higher and lower than 90%) | L (Apera spica-venti) herbicidal effect grade [12]: 5 (Herbicidal ratio of 90% or more (almost completely withered)) | Herbicidal effect grade, A: Echinochloa oryzacola Vasing. [13]: 5 (Herbicidal ratio of 90% or more (almost completely withered))

CON=C(CC1CC(O)=C(c2c(C)cc(Br)cc2C)C1=O)C1CC1 (stereo not drawn) [9-002]
G: Setaria viridis, herbicidal effect grade [1]: 5 (Herbicidal ratio of 90% or more (almost completely withered)) | Herbicidal effect grade, N: Amaranthus retroflexus [2]: 0 (Herbicidal ratio of 5% or lower (almost no effect)) | f: beet, effect on crop grade [3]: 0 (Herbicidal ratio of 5% or lower (almost no effect)) | E herbicidal effect grade ([4]; Table 24): 5 (Herbicidal ratio of 90% or more (almost completely withered)) | H (Echinochloa crus-galli var. crus-galli) herbicidal effect grade ([5]; Table 24): 5 (Herbicidal ratio of 90% or more (almost completely withered)) | P: Stellaria media, herbicidal effect grade [6]: 0 (Herbicidal ratio of 5% or lower (almost no effect)) | L: Apera spica-venti, herbicidal effect grade [7]: 5 (Herbicidal ratio of 90% or more (almost completely withered)) | b: directly sowed rice plant, effect on crop grade [8]: 5 (Herbicidal ratio of 90% or more (almost completely withered)) | Herbicidal effect grade, H: Echinochloa crus-galli var. crus-galli [9]: 5 (Herbicidal ratio of 90% or more (almost completely withered)) | Herbicidal effect grade, A: Echinochloa oryzacola Vasing. [10]: 5 (Herbicidal ratio of 90% or more (almost completely withered)) | d: soybean, effect on crop grade [11]: 0 (Herbicidal ratio of 5% or lower (almost no effect)) | Herbicidal effect grade, L: Apera spica-venti [12]: 5 (Herbicidal ratio of 90% or more (almost completely withered)) | Herbicidal effect grade, A: Echinochloa oryzacola Vasing. [13]: 5 (Herbicidal ratio of 90% or more (almost completely withered))
